Measurements: patent US9464058B2 (Hoffmann-La Roche Inc., priority 2012, dated 2016)

Assays:
human CYP11B1 = target: T1, human CYP11B1 (Homo sapiens, UniProt P15538); experiment: G-402 cellular enzyme assay, human CYP11B1 (cortisol release, HTRF); format: cell-based; details: G-402 cells expressing human CYP11B1; 1 μM Deoxycortisol; 16 h
T1 construct: expressed in transfected cells
T1 sequence (P15538 25-503): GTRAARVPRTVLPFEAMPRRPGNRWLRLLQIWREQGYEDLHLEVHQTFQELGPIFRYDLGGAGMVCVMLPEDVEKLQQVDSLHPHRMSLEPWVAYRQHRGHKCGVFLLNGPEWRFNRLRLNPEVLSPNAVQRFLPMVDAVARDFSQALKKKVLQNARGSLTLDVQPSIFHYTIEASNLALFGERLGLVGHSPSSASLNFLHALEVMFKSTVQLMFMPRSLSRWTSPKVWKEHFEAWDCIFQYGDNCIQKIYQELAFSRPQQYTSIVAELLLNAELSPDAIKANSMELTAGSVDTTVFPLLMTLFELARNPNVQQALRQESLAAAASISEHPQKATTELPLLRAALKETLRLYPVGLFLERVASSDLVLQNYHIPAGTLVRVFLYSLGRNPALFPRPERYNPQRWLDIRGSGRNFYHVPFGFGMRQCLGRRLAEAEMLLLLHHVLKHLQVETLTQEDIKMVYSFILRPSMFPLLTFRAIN
Excerpt: (§1) Herein we identified the use of the G-402 cell line as a host cell to ectopically express (transiently or stably) enzymes of the CYP11 family. Specifically we developed stable G-402 cells expressing ectopically human CYP11B1, human CYP11B2, human CYP11A1, cynomolgus CYP11B1 or cynomolgus CYP11B2 enzyme activity. Importantly, the identified cell line G-402 expresses co-factors (adrenodoxin and adrenodoxin reductase) important for the activity of the CYP11 family, and no relevant enzyme activity of the CYP11 family (in comparison to H295R cells) was detected in these cells. Therefore the G-402 cell line is uniquely suited as a host cell for the ectopic expression of enzymes from the CYP11 family.
(§2) G-402 cells can be obtained from ATCC(CRL-1440) and were originally derived from a renal leiomyoblastoma.
(§3) The expression plasmids contains the ORF for either human/cyno CYP11B1 or CYP11B2 under the control of a suitable promoter (CMV-promoter) and a suitable resistance marker (neomycin). Using standard techniques the expression plasmid is transfected into G-402 cells and these cells are then selected for expressing the given resistance markers. Individual cell-clones are then selected and assessed for displaying the desired enzymatic activity using 11-Deoxycorticosterone (Cyp11B2) or 11-Deoxycortisol (Cyp11B1) as a substrate.
(§4) G-402 cells expressing CYP11 constructs were established as described above and maintained in McCoy's 5a Medium Modified, ATCC Catalog No. 30-2007 containing 10% FCS and 400 μg/ml G418 (Geneticin) at 37° C. under an atmosphere of 5% CO2/95% air. Cellular enzyme assays were performed in DMEM/F12 medium containing 2.5% charcoal treated FCS and appropriate concentration of substrate (0.3-10 uM 11-Deoxycorticosterone, 11-Deoxycortisol or Corticosterone). For assaying enzymatic activity, cells were plated onto 96 well plates and incubated for 16 h. An aliquot of the supernatant is then transferred and analyzed for the concentration of the expected product (Aldosterone for CYP11B2; Cortisol for CYP11B1). The concentrations of these steroids can be determined using HTRF assays from CisBio analyzing either Aldosterone or Cortisol.
(§5) Inhibition of the release of produced steroids can be used as a measure of the respective enzyme inhibition by test compounds added during the cellular enzyme assay. The dose dependent inhibition of enzymatic activity by a compound is calculated by means of plotting added inhibitor concentrations (x-axes) vs. measured steroid/product level (y-axes). The inhibition is then calculated by fitting the following 4-parameter sigmoidal function (Morgan-Mercer-Flodin (MMF) model) to the raw data points using the least squares method:
(§6) [formula] wherein A is the maximum y value, B is the EC50 factor determined using XLFit, C is the minimum y value and D is the slope value.
(§7) EC50 values for compounds claimed herein were tested with the G402-based assay system described. Cyp11B2 enzyme activity was tested in presence of 1 μM Deoxycorticosterone and variable amounts of inhibitors; Cyp11B1 enzyme activity was tested in presence of 1 μM Deoxycortisol and variable amounts of inhibitors.

human CYP11B2 = target: T2, human CYP11B2 (Homo sapiens, UniProt P19099); experiment: G-402 cellular enzyme assay, human CYP11B2 (aldosterone release, HTRF); format: cell-based; details: G-402 cells expressing human CYP11B2; 1 μM Deoxycorticosterone; 16 h
T2 construct: expressed in transfected cells
T2 sequence (P19099 25-503): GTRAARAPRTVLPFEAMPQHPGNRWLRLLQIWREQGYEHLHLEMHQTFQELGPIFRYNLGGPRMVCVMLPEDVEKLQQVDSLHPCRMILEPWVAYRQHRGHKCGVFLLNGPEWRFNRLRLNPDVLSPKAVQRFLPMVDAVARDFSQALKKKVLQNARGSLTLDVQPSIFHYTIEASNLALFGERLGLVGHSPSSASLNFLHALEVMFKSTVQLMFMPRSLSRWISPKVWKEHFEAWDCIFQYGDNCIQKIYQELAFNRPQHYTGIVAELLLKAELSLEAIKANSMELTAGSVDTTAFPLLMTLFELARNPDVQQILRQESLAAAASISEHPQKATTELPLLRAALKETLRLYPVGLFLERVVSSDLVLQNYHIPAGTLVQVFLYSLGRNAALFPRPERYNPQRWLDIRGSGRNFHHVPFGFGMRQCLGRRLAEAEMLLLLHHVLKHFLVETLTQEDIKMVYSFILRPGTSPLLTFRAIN
Excerpt: as §1, §2, §3, §4, §5, §6, §7

Compound | EC50 (human CYP11B1) [nM] | EC50 (human CYP11B2) [nM]
Cn1cncc1C(=O)c1ccc(C#N)cc1 [Example 2, 4-(3-Methyl-3H-imidazole-4-carbonyl)-benzonitrile] | 368 | 11.6
Cn1cncc1C(=O)c1ccc(Cl)c(F)c1 [Example 9, (4-Chloro-3-fluoro-phenyl)-(3-methyl-3H-imidazol-4-yl)-methanone] | 187 | 7.7
CCn1cncc1C(=O)c1ccc(Cl)c(Cl)c1 [Example 15, (3,4-Dichloro-phenyl)-(3-ethyl-3H-imidazol-4-yl)-methanone] | 20 | 1.8
Cn1cncc1C(=O)c1ccc(C#N)cc1F [Example 8, 3-Fluoro-4-(3-methyl-3H-imidazole-4-carbonyl)-benzonitrile] | 2500 | 98.6
CC(C)n1cncc1C(=O)c1ccc2c(c1)CCC(=O)N2C [Example 27, 6-(3-Isopropyl-3H-imidazole-4-carbonyl)-1-methyl-3,4-dihydro-1H-quinolin-2-one] | 153 | 6.9
N#Cc1ccc(C(=O)c2cncn2CC(F)(F)F)cc1 [Example 20, 4-[3-(2,2,2-Trifluoro-ethyl)-3H-imidazole-4-carbonyl]-benzonitrile] | 190 | 23.5
O=C(c1ccc(F)c(F)c1)c1cncn1-c1ccc(Cl)cc1 [Example 97, [3-(4-Chloro-phenyl)-3H-imidazol-4-yl]-(3,4-difluoro-phenyl)-methanone] | 74.6 | 3.4
Cn1cncc1C(=O)c1cccc(C#N)c1 [Example 21, 3-(3-Methyl-3H-imidazole-4-carbonyl)-benzonitrile] | 8710 | 583
CCn1cncc1C(=O)c1ccc(F)c(C#N)c1 [Example 63, 5-(3-Ethyl-3H-imidazole-4-carbonyl)-2-fluoro-benzonitrile] | 3440 | 335
CCn1cncc1C(=O)c1ccc(N(C)C(=O)OC(C)(C)C)cc1 [Example 88, [4-(3-Ethyl-3H-imidazole-4-carbonyl)-phenyl]-methyl-carbamic acid tert-butyl ester] | 1290 | 2200
N#Cc1ccc(-n2cncc2C(=O)c2ccc(Cl)c(Cl)c2)cc1Cl [Example 78, 2-Chloro-4-[5-(3,4-dichloro-benzoyl)-imidazol-1-yl]-benzonitrile] | 145 | 3.7
Cn1cncc1C(=O)c1ccc(F)cc1 [Example 23, (4-Fluoro-phenyl)-(3-methyl-3H-imidazol-4-yl)-methanone] | 151 | 49.3
CCn1cncc1C(=O)c1ccc(C#N)cc1 [Example 5, 4-(3-Ethyl-3H-imidazole-4-carbonyl)-benzonitrile] | 46.8 | 2.6
CC(C)n1cncc1C(=O)c1ccc(C#N)cc1 [Example 6, 4-(3-Isopropyl-3H-imidazole-4-carbonyl)-benzonitrile] | 4.5 | 0.8
CCn1cncc1C(=O)c1ccc(SC)c(OC)c1 [Example 60, (3-Ethyl-3H-imidazol-4-yl)-(3-methoxy-4-methylsulfanyl-phenyl)-methanone] | 84.3 | 4
O=C(c1ccc(Cl)cc1)c1cncn1-c1ccc(Cl)cc1 [Example 90, (4-Chloro-phenyl)-[3-(4-chloro-phenyl)-3H-imidazol-4-yl]-methanone] | 3620 | 2.6

Compound | EC50 (human CYP11B1) [nM] | EC50 (human CYP11B2) [nM]
CCSc1ccc(C(=O)c2cncn2C)cc1 [Example 51, (4-Ethylsulfanyl-phenyl)-(3-methyl-3H-imidazol-4-yl)-methanone] | 3250 | 102
COc1cc(C(=O)c2cncn2C)ccc1SC(F)(F)F [Example 79, (3-Methoxy-4-trifluoromethylsulfanyl-phenyl)-(3-methyl-3H-imidazol-4-yl)-methanone] | 1580 | 14.8
O=C(c1ccc(F)c(Cl)c1)c1cncn1C1CC1 [Example 41, (3-Chloro-4-fluoro-phenyl)-(3-cyclopropyl-3H-imidazol-4-yl)-methanone] | 21 | 3.5
C#Cc1ccc(C(=O)c2cncn2C)cc1 [Example 29, (4-Ethynyl-phenyl)-(3-methyl-3H-imidazol-4-yl)-methanone] | 259 | 20.3
COc1cc(C(=O)c2cncn2C2CC2)ccc1SC [Example 62, (3-Cyclopropyl-3H-imidazol-4-yl)-(3-methoxy-4-methylsulfanyl-phenyl)-methanone] | 46.1 | 2.8
COc1cc(C(=O)c2cncn2C(C)C)ccc1SC [Example 61, (3-Isopropyl-3H-imidazol-4-yl)-(3-methoxy-4-methylsulfanyl-phenyl)-methanone] | 8.7 | 0.2
CCC(CC)n1cncc1C(=O)c1ccc(C#N)cc1 [Example 82, 4-[3-(1-Ethyl-propyl)-3H-imidazole-4-carbonyl]-benzonitrile] | 3.3 | 0.2
CN1C(=O)CCc2cc(C(=O)c3cncn3C)ccc21 [Example 25, 1-Methyl-6-(3-methyl-3H-imidazole-4-carbonyl)-3,4-dihydro-1H-quinolin-2-one] | 7880 | 77
CCC(C)n1cncc1C(=O)c1ccc(C#N)cc1 (centres unmarked) [Example 16, 4-(3-sec-Butyl-3H-imidazole-4-carbonyl)-benzonitrile] | 1 | 0.7
CC(C)n1cncc1C(=O)c1ccc(Cl)cc1 [Example 13, (4-Chloro-phenyl)-(3-isopropyl-3H-imidazol-4-yl)-methanone] | 5.6 | 2.1
O=C(c1ccc(Cl)c(F)c1)c1cncn1-c1ccc(Cl)cc1 [Example 92, (4-Chloro-3-fluoro-phenyl)-[3-(4-chloro-phenyl)-3H-imidazol-4-yl]-methanone] | 132 | 3.2
CCn1cncc1C(=O)c1ccc(C(C)(C)C)cc1 [Example 35, (4-tert-Butyl-phenyl)-(3-ethyl-3H-imidazol-4-yl)-methanone] | 1690 | 3670
O=C(c1ccc(Cl)cc1)c1cncn1C1CC1 [Example 19, (4-Chloro-phenyl)-(3-cyclopropyl-3H-imidazol-4-yl)-methanone] | 52.9 | 6.1
CCn1cncc1C(=O)c1ccc(Cl)c(F)c1 [Example 34, (4-Chloro-3-fluoro-phenyl)-(3-ethyl-3H-imidazol-4-yl)-methanone] | 33 | 2.7
CCC(C)n1cncc1C(=O)c1cccc(Cl)c1 (centres unmarked) [Example 28, (3-sec-Butyl-3H-imidazol-4-yl)-(3-chloro-phenyl)-methanone] | 22.7 | 14.1
